The text below walks through data of patent US11021481B2, “Substituted isoindolin-1-ones and 2,3-dihydro-1h-pyrrolo[3,4-c]pyridin-1-ones as HPK1 antagonists” (Nimbus Saturn, Inc., priority 2019, dated 2021).

The structures appear in SMILES notation.

The target of the test is HPK1 (Homo sapiens (Human), UniProt Q92918). The test is described as follows: HPK1 biochemical enzyme assay (microfluidic mobility shift assay). To be noted: 1.5 nM HPK1, ATP 1 mM final, 30 min preincubation, 60 min at RT, Caliper EZ Reader; read-out: HPK1 1000UMATP caliper IC50. Here is the method: HPK1 biochemical enzyme assay: HPK1 enzyme inhibition was measured using a microfluidic mobility shift assay. […] Test compounds were titrated in ten point curves (top final assay concentration 3 μM), and preincubated with enzyme/substrate mix for 30 min prior to initiation of the reaction by addition of ATP (1 mM final concentration) and substrate (1 μM final concentration; Carna Biosciences) diluted in assay buffer supplemented by MgCl2 (final assay concentration of 5 mM). Following 60 min incubation at RT, the reaction was terminated by addition of 60 µl/well termination buffer (Carna Biosciences) and signal determination using aCaliper EZ Reader (Perkin Elmer, UK).
Chain of HPK1 (Q92918 whole entry): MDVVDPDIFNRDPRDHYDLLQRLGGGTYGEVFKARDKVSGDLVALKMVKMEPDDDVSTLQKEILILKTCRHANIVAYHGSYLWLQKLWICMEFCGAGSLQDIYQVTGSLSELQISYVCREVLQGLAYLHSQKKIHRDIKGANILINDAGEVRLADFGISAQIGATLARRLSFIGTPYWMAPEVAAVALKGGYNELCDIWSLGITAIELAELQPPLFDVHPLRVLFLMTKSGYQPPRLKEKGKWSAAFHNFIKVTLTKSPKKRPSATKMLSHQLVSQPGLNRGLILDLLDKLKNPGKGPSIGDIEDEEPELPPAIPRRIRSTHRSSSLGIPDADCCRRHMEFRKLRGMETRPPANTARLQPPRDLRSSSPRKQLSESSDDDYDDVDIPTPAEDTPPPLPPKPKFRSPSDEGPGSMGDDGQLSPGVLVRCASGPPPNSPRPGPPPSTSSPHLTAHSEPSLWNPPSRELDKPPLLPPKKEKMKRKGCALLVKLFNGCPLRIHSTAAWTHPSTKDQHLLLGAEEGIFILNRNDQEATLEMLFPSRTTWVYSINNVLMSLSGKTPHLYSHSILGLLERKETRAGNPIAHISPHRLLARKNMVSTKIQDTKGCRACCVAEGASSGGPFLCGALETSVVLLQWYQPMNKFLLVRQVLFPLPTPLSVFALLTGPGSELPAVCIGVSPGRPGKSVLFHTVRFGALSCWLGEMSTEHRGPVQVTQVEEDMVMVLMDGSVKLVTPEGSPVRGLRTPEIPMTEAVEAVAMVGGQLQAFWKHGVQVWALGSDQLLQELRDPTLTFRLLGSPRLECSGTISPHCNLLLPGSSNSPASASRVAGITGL
The compound numbers correspond to the compound numbers in Table 1.
As for `CN1C[C@H](c2ccc(Nc3ccc(-c4cnc5cnccn45)c4c3C(=O)NC4)nc2)CC1=O` [I-331, (S)-4-(imidazo[1,2-a]pyrazin-3-yl)-7-((5-(1-methyl-5-oxopyrrolidin-3-yl)pyridin-2-yl)amino)isoin-dolin-1-one], the IC50 (in general, the concentration that gives 50% inhibition) is less than 100 nM.

`Cc1ccn2c(-c3ccc(Nc4ccc(S(C)(=O)=O)cn4)c4c3CNC4=O)cnc2c1` [I-148, 4-(7-methylimidazo [1,2-a]pyridin-3-yl)-7-[(5-methylsulfony 1-2-pyridyl)amino] isoindolin-1-one]: the IC50 is less than 100 nM.

For `CN(C)CC1(O)CCCN(c2ccc(Nc3ccc(-c4cnc5cc(F)ccn45)c4c3C(=O)NC4)nc2)C1` (centres unmarked) [I-385, 7-((5-(3-((dimethylamino)-methyl)-3-hydroxypiperidin-1-yl)pyridin-2-yl)amino)-4-(7-fluoroimidazo [1,2-a]pyridin-3-yl)isoindolin-1-one], the IC50 is less than 100 nM.

In the case of `CCNC(=O)c1ccn2c(-c3ccc(Nc4ccc(N5CCC(O)CC5)cn4)c4c3CNC4=O)cnc2c1` [I-195, N-ethyl-3-[7-[[5-(4-hydroxy-1-piperidyl)-2-pyridyl]amino]-1-oxo-isoindolin-4-yl]imidazo[1,2-a]pyridine-7-carboxamide], the IC50 was 100 to 1000 nM.

As to `CN(C)[C@@H]1COCCN(c2ccc(Nc3ccc(-c4cnc5cc(F)ccn45)c4c3C(=O)NC4)nc2)C1` [I-518, (S)-7-((5-(6-(dimethylami-no)-1,4-oxazepan-4-yl)pyridin-2-yl)amino)-4-(7-fluoroimidazo [1,2-a]pyridin-3-yl)isoindolin-1-one], the IC50 is less than 100 nM.

With `CN(C)Cc1nc(Nc2ccc(-c3cnc4cc(F)ccn34)c3c2C(=O)NC3)ccc1C1(C#N)CCOCC1` [I-824, 4-(2-((dimethylamino)methyl)-6-((7-(7-fluoroimidazo [1,2-a]pyridin-3-yl)-3-oxoisoindolin-4-yl)amino)pyri-din-3-yl)tetrahydro-2H-pyran-4-carbonitrilc], the half-inhibitory concentration (IC50) is less than 100 nM.

For the molecule `Cn1ccc2c(-c3ccc(-n4ccc(N5CCC(O)CC5)n4)c4c3CNC4=O)ccnc21` [I-308, 7-(3-(4-hydroxypiper-idin-1-yl)-1H-pyrazol-1-yl)-4-(1-methyl-1H-pyrrolo[2,3-b)pyridin-4-yl)isoindolin-1-one], the 50% inhibitory concentration (IC50) was greater than 1000 nM.

Turning to `Cc1ccn2c(-c3ccc(Nc4ccc(N5CCC(O)(CN6CCN(C)CC6)CC5)cn4)c4c3CNC4=O)cnc2c1F` [I-444, 4-(8-fluoro-7-methylimidazo [1,2-a]pyridin-3-yl)-7-((5-(4-hydroxy-4-((4-methylpiperazin-1-yl)methyl)piper-idin-1-yl)pyridin-2-yl)amino)isoin-dolin-1-one], the IC50 is less than 100 nM.

As to `CO[C@]1(CN(C)C)CCCN(c2ccc(Nc3ccc(-c4cnc5cc(F)ccn45)c4c3C(=O)NC4)nc2)C1` [I-612, (S)-7-((5-(3-((dimethylamino)-methyl)-3-methoxy-piperidin-1-yl)pyridin-2-yl)amino)-4-(7-fluoroimidazo [1,2-a]pyridin-3-yl)isoindolin-1-one], the IC50 is less than 100 nM.

In the case of `Cn1ccc2c(-c3ncc(Nc4cccc(N5C[C@@H](N)CC5=O)n4)c4c3CNC4=O)ccnc21` [I-692, (S)-7-((6-(4-amino-2-oxopyrrolidin-1-yl)pyridin-2-yl)amino)-4-(1-methyl-1H-pyrrolo[2,3-b]pyridin-4-yl)-2,3-dihydro-1H-pyrrolo[3,4-c]pyridin-1-one], the IC50 was less than 100 nM.

With `CCN(CC)Cc1nc(Nc2ccc(-c3cnc4cc(F)ccn34)c3c2C(=O)NC3)ccc1C1CCOC1` (centres unmarked) [I-504, 7-[[6-(diethylaminomethyl)-5-tetrahydrofuran-3-yl-2-pyridyl]amino]-4-(7-fluoroimidazo [1,2-a]pyridin-3-yl)isoindolin-1-one], the 50% inhibitory concentration (IC50) is less than 100 nM.

As to `O=C1NCc2c(-c3cnc4cc(F)ccn34)ccc(Nc3cccc(N4CCC5CNCC54)n3)c21` (centres unmarked) [I-493], the half-maximal inhibitory concentration (IC50) was less than 100 nM.

As for `Cn1ccc2c(-c3ncc(Nc4cccc(N5CCNCC5)n4)c4c3CNC4=O)ccnc21` [I-232, 4-(1-methylpyrrolo [2,3-b]pyridin-4-yl)-7-[(6-piperazin-1-yl-2-pyridyl)amino]-2,3-dihydropyrrolo [3,4-c]pyridin-1-one], the half-inhibitory concentration (IC50) is less than 100 nM.

With `CN(C)Cc1nc(Nc2cnc(-c3ccnc4c3ccn4C)c3c2C(=O)NC3)ccc1N1CCO[C@@H](C(C)(C)O)C1` [I-769, (R)-7-((6-((dimethylamino)-methyl)-5-(2-(2-hydroxypropan-2-yl)morpholino)pyridin-2-yl)amino)-4-(1-methyl-1H-pyrrolo[2,3-b]pyridin-4-yl)-2,3-dihydro-1H-pyrrolo[3,4-c]pyridin-1-one], the half-inhibitory concentration (IC50) is less than 100 nM.

For `O=C1NCc2c(-c3cnc4cc(F)ccn34)ccc(Nc3ccc([C@H]4CCOC4)c(CN4CCC[C@@H]4CO)n3)c21` [I-825, 4-(7-fluoroimidazo [1,2-a]pyridin-3-yl)-7-((6-(((R)-2-(hydroxymeth-yl)pyrrolidin-1-yl]methyl)-5-((R)-THF-3-yl)pyridin-2-yl)amino)isoin-dolin-1-one], the IC50 was less than 100 nM.

Consider `CN(C)Cc1nc(Nc2ccc(-c3cnc4cc(F)ccn34)c3c2C(=O)NC3)cnc1C1CCOC1` (stereo in doubt) [I-799, (S)-7-((6-((dimethylamino)-methyl)-5-(tetrahydrofu-ran-3-yl)pyrazin-2-yl)amino)-4-(7-fluoroimidazo [1,2-a]pyridin-3-yl)isoindolm-1-one], for which the IC50 is less than 100 nM.

With `Cn1ccc2c(-c3ncc(Nc4cccc(N5CC[C@@H](N6CCCC6)C5)n4)c4c3CNC4=O)ccnc21` [I-431, (R)-7-((6-([1,3-bipyrrolidin]-1-yl)pyridin-2-yl)amino)-1-(1-methyl-1H-pyrrolo[2,3-b]pyridin-4-yl)-2,3-dihydro-1H-pyrrolo[3,4-c]pyridin-1-one], the concentration for half-maximal inhibition (IC50) was less than 100 nM.

Take `C[C@H]1COCCN1c1ccc(Nc2ccc(-c3cnc4cnccn34)c3c2C(=O)NC3)nc1` [I-314, (S)-4-(imidazo[1,2-a]pyrazin-3-yl)-7-((5-(3-methylmorpho-lino)pyridin-2-yl)amino)isoin-dolin-1-one]: the half-maximal inhibitory concentration (IC50) was less than 100 nM.

Consider `CN(C)C1CN(c2nc(Nc3ccc(-c4cnc5cc(F)ccn45)c4c3C(=O)NC4)ccc2C2CCOC2)C1` (stereo in doubt) [I-786, (S)-7-((6-(3-(dimctliylami-no)azetidin-1-yl)-5-(tetrahydrofur-an-3-yl)pyridin-2-yl)amino)-4-(7-fluoroimidazo [1,2-a]pyridin-3-yl)isoindolin-1-one], for which the half-inhibitory concentration (IC50) is less than 100 nM.

Regarding `Cc1ccc2c(-c3ccc(Nc4ccc(C5CCOC5)c(CN(C)C)n4)c4c3CNC4=O)cnn2c1` (stereo in doubt) [I-732, (R)-7-((6-((dimethylamino)-methyl)-5-(tetrahydrofuran-3-yl)pyridin-2-yl)amino)-4-(6-methylpyra-zolo[1,5-a]pyridin-3-yl)isoindolin-1-one], the 50% inhibitory concentration (IC50) is less than 100 nM.

With `Cn1ccc2c(-c3ncc(Nc4cccc(N5CC6(CCN6)C5)n4)c4c3CNC4=O)ccnc21` [I-680, 7-((6-(l,6-diazaspiro[3,3]heptan-6-yl)pyridin-2-yl)amino)-4-(1-methyl-1H-pyrrolo[2,3-b]pyridin-4-yl)-2,3-dihydro-1H-pyrrolo[3,4-c]pyridin-1-one], the half-maximal inhibitory concentration (IC50) was 100 to 1000 nM.

Take `CN(Cc1nc(Nc2ccc(-c3cnc4cc(F)ccn34)c3c2C(=O)NC3)ccc1[C@H]1CCOC1)C1CC1` [I-737]: the concentration for half-maximal inhibition (IC50) is less than 100 nM.

`Cn1ccc2c(-c3ncc(Nc4ccc(N5CCC[C@@H](C(C)(C)O)C5)cn4)c4c3CNC4=O)ccnc21` [I-212, 7-[[5-[(3R)-3-(1-hydroxy-1-methyl-ethyl)-1-piperidyl]-2-pyridyl]amino]-4-(1-methylpyrrolo [2,3-b]pyridin-4-yl)-2,3-dihydropyrrolo [3,4-c]pyridin-1-one]: the half-inhibitory concentration (IC50) is less than 100 nM.

Turning to `Cn1cc2c(-c3ccc(Nc4ccc(N5CCC(O)CC5)cn4)c4c3CNC4=O)cnc-2cn1` [I-422, 7-((5-(4-hydroxy-piperidin-1-yl)pyridin-2-yl)amino)-4-(5-methyl-5H-pyrrolo[2,3-d]pyridazin-3-yl)isoindolin-1-one], the IC50 fell in the range of 100 to 1000 nM.

For the molecule `Cc1ccn2c(-c3ccc(Nc4ccc(N5CCC[C@@H](O)C5)cn4)c4c3CNC4=O)cnc2c1` [I-172, 7-[[5-[(3R)-3-hydroxy-1-piperipyl]-2-pyridyl]amino]-4-(7-methylimidazo [1,2-a]pyridin-3-yl)isoindolin-1-one], the IC50 is less than 100 nM.

`CN(C)CC1(F)CCCN(c2ccc(Nc3ccc(-c4cnc5cc(F)ccn45)c4c3C(=O)NC4)nc2)C1` (centres unmarked) [I-503]: the IC50 was less than 100 nM.

Take `O=C1NCc2c(-c3cnc4cc(F)ccn34)ccc(Nc3ccc(N4CCCC5(CNCCO5)C4)cn3)c21` (centres unmarked) [I-500, 4-(7-fluoroimidazo [1,2-a]pyridin-3-yl)-7-[[5-(1-oxa-4,8-diazaspiro[5.5]undecan-8-yl)-2-pyridyl]amino] isoindolin-1-one]: the IC50 was less than 100 nM.

Regarding `Cn1ccc2c(-c3ncc(Nc4ccc(N5C[C@H]6C[C@@H]5CO6)cn4)c4c3CNC4=O)ccnc21` [I-289, 7-((5-((1R,4R)-2-oxa-5-azabicyclo[2.2.1]heptan-5-yl)pyridin-2-yl)amino)-4-(1-methyl-1H-pyrrolo[2,3-b]pyridin-4-yl)-2,3-dihydro-1H-pyrrolo[3,4-c]pyridin-1-one], the IC50 was less than 100 nM.

Regarding `O=C1NCc2c(-c3cccn4ccnc34)ncc(Nc3ccc(N4CCC(O)CC4)cn3)c21` [I-384, 7-((5-(4-hydroxy-piperidin-1-yl)pyridin-2-yl)amino)-4-(imidazo[1,2-a]pyridin-8-yl)-2,3-dihydro-1H-pyrrolo[3,4-c]pyridin-1-one], the half-maximal inhibitory concentration (IC50) was greater than 1000 nM.
